Experimental data published in patent US6492417B1, “11-deoxy-16-fluoro-PGF2α analogs as FP receptor antagonists” (Alcon Manufacturing, Ltd., priority 1997, dated 2002).

Key:
FP receptor [1] = molecular target: T1, FP receptor (Rattus norvegicus, UniProt P43118); experiment: Agonist stimulation of [3H]IPs production in A7r5 cells; format: cell-based
T1 construct: Two cell lines containing the FP receptor; host or cells: A7r5 rat thoracic aorta smooth muscle cells
Experimental: (§1) Confluent monolayer cultures of cells (in a standard 24-well tissue culture plate) expressing the FP receptor are exposed to [^3H]-myo-inositol (1.5 μCi in a volume of 0.5 ml DMEM culture medium supplemented with 2 mM L-glutamine and 10 μg/ml gentamicin sulfate) in the absence of serum, which causes net incorporation of the radioisotope into the phosphotidylinositol membrane lipids. After 24-32 hrs, the medium with the radioisotope is removed and the cells are rinsed once with DMEM/F-12 medium containing 10 mM LiCl (assay medium). Then 0.5 ml of assay medium is added to each well of cells, followed by addition of varying concentrations of an FP receptor agonist (or other test compound). Cells are exposed to the test agent for 30-120 min in a humidified incubator (95% air/5% CO2), maintained at 37° C. […] The presence of LiCl during the agonist stimulation period inhibits phosphatases and permits the accumulation of radiolabelled inositol phosphates (IPs) which is measured by ion exchange chromatography.
(§2) The agonist-dependent production of IPs, which reflects the degree of receptor activation, is quantitatively measured for each well of cells in the 24-well plate by separating the negatively charged radiolabelled IPs from other minor radiolabelled species and free [^3H]-myo-inositol by anion exchange chromatography. […]

FP receptor [2] = molecular target: T1, FP receptor; experiment: Schild analysis: antagonism of fluprostenol-induced [3H]IPs production in A7r5 cells (fixed antagonist, varied agonist); format: cell-based; conditions: for Kb / Kb (potency as antagonist of the FP receptor): Schild analysis; for Kb: read-out: Kb (potency as antagonist of the FP receptor)
Experimental: Confluent monolayer cultures of cells (in a standard 24-well tissue culture plate) expressing the FP receptor are exposed to [^3H]-myo-inositol (1.5 μCi in a volume of 0.5 ml DMEM culture medium supplemented with 2 mM L-glutamine and 10 μg/ml gentamicin sulfate) in the absence of serum, which causes net incorporation of the radioisotope into the phosphotidylinositol membrane lipids. After 24-32 hrs, the medium with the radioisotope is removed and the cells are rinsed once with DMEM/F-12 medium containing 10 mM LiCl (assay medium). Then 0.5 ml of assay medium is added to each well of cells, followed by addition of varying concentrations of an FP receptor agonist (or other test compound). Cells are exposed to the test agent for 30-120 min in a humidified incubator (95% air/5% CO2), maintained at 37° C. Then the assay medium is removed and 1 ml of 0.1 M formic acid is added to the cell monolayer to inactivate the phospholipase C and to the radiolabelled products into the assay medium. The presence of LiCl during the agonist stimulation period inhibits phosphatases and permits the accumulation of radiolabelled inositol phosphates (IPs) which is measured by ion exchange chromatography.
The agonist-dependent production of IPs, which reflects the degree of receptor activation, is quantitatively measured for each well of cells in the 24-well plate by separating the negatively charged radiolabelled IPs from other minor radiolabelled species and free [^3H]-myo-inositol by anion exchange chromatography. This is accomplished by adding 0.9 ml of the cell lysate obtained as described above to a column packed with 1 ml of AG 1-X8 anion exchange resin in the formate form. The elution and separation of the radiolabelled IPs from the column consists of sequential additions to the column of: 1) 10 ml of water; 2) 8 ml of 50 mM ammonium formate; and 3) 4 ml of 1.2 M ammonium formate solution containing 0.1 M formic acid. The first two washes are discarded, and the third is collected in a scintillation vial, to which is added 15 ml of a water-accepting scintillation fluid. These samples, i.e., the radiolabelled IPs formed by the cells in response to stimulation by an FP prostaglandin receptor agonist or other test agent, is then measured by scintillation spectrometry on a beta-counter.
The dependence of the level of the [^3H]IPs production on agonist concentration is analyzed by standard pharmacological methods to determine the potency (EC50 value) and efficacy (maximum response; Emax) of the FP receptor agonist relative to a standard FP receptor agonist such as fluprostenol. […] The agonist stimulation is then continued for the standard time (30-120 min), after which the procedure for quenching the reaction, separating the [^3H]IPs, and anion exchange chromatography is identical to the procedure described above. A compound is considered to be an antagonist in this protocol if it inhibits the agonist-stimulated [^3H]IPs production relative to the production measured in the control experiment (performed in parallel), in which the solvent is substituted for the antagonist.
Two different antagonist protocols are employed: 1) the antagonist concentration is varied while holding the agonist concentration fixed at a concentration approximately 10 times the agonist EC50 value and 2) the antagonist concentration is fixed in a given experiment, with the agonist concentration varied, and several such experiments, each with a different, fixed antagonist concentration, are performed. […] Overall, the Ki and Kb values are synonymous and represent the antagonist potency of the antagonist at equilibrium.

FP receptor [3] = experiment: Schild analysis: antagonism of agonist-stimulated [3H]IPs production, data from 3T3 and A7r5 cells; format: cell-based, mouse and rat; conditions: n=9 experiments using 3T3 and A7r5 cells; read-out: Kb (antagonist potency by Schild analysis)
Experimental: as §1, §2

FP receptor [4] = molecular target: T1, FP receptor; experiment: Concentration-dependent inhibition of fluprostenol-stimulated [3H]IPs production in A7r5 cells (varied antagonist, fixed agonist); format: cell-based; conditions: fluprostenol fixed at approximately 10 times its EC50, n=3, read-out: Ki (antagonist potency by method of FIG. 2)
Experimental: as §1, §2

[5] = molecular target: FP prostaglandin receptor (Homo sapiens, UniProt P43088); experiment: Selectivity for FP prostaglandin receptor compared to other classes of prostaglandin receptors
FP prostaglandin receptor, sequence (P43088 whole entry): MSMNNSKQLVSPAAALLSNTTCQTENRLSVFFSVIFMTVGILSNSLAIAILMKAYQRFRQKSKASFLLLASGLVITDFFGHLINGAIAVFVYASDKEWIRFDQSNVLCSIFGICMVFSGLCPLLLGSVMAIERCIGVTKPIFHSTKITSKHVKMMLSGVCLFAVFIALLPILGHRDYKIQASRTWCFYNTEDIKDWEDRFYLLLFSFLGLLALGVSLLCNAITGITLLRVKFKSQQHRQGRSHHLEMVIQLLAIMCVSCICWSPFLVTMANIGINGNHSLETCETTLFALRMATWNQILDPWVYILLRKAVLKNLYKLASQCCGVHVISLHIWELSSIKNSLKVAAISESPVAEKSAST

T1 sequence (P43118 whole entry): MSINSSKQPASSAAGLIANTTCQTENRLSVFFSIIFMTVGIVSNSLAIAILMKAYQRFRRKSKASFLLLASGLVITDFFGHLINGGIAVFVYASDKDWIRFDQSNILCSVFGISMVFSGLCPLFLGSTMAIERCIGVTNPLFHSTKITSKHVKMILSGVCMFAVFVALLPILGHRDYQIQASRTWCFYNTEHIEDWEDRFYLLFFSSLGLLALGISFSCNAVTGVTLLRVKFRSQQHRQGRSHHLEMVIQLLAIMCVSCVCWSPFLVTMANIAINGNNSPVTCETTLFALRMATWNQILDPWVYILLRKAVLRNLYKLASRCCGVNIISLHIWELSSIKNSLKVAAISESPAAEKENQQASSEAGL

With O=C(O)CCC/C=C\C[C@@H]1[C@@H](/C=C/[C@@H](O)COc2cccc(C(F)(F)F)c2)[C@H](O)C[C@@H]1O (racemic) [fluprostenol] the “Agonist classification (maximum effect relative to fluprostenol)” value (FP receptor [1]) was “full agonist”.
CCCCC(F)[C@H](O)/C=C/[C@H]1CC[C@H](O)[C@@H]1C/C=C\CCCC(=O)O (some centres unmarked) [Compound II] was tested, and the Kb (FP receptor [2]; A7r5 cells) was 132 nM, the “Type of antagonism (shift of fluprostenol dose-response curves)” value (FP receptor [2]; A7r5 cells, maximal effects of fluprostenol unaltered, potency reduced) was “competitive antagonist” and the “Fold higher potency as FP receptor antagonist than phloretin” value (FP receptor [2]; from Table 1 Kb values) was “greater than 39 fold”. For the same compound, the Kb (FP receptor [3]) was 132 ± 22 nM, the Ki (FP receptor [4]) was 324 ± 49 nM and the “Agonist classification (maximum effect relative to fluprostenol)” value (FP receptor [1]) was “partial agonist”. For the same compound, the “Selectivity for the FP prostaglandin receptor compared to other classes of prostaglandin receptors” value [5] was “relatively good selectivity”.
Compound COc1ccc(Cl)cc1C(=O)NCCc1ccc(S(=O)(=O)NC(=O)NC2CCCCC2)cc1 [Glibenclamide] has a Kb (FP receptor [2]; A7r5 cells) of 160000 nM.
CCCCC[C@H](O)/C=C/[C@@H]1[C@@H](C/C=C\CCCC(=O)N(C)C)[C@@H](O)C[C@H]1O [PGF2α dimethyl amide] was tested, and the “Kb (potency as antagonist of the FP receptor)” value (FP receptor [2]; A7r5 cells) was “Inactive”.
For CCCCC[C@H](O)/C=C/[C@@H]1[C@@H](C/C=C\CCCCN(C)C)[C@@H](O)C[C@H]1O [PGF2α dimethyl amine], the “Kb (potency as antagonist of the FP receptor)” value (FP receptor [2]; A7r5 cells) was “Inactive”.
For O=C(CCc1ccc(O)cc1)c1c(O)cc(O)cc1O [Phloretin], the Kb (FP receptor [2]; A7r5 cells) was 5200 nM.
In the case of CCCCNC(=O)NS(=O)(=O)c1ccc(C)cc1 [Tolbutamide], the “Kb (potency as antagonist of the FP receptor)” value (FP receptor [2]; A7r5 cells) is reported as “Inactive” and the “Kb (potency as antagonist of the FP receptor)” value (FP receptor [2]; A7r5 cells, listed as tolbutamide) is reported as “inactive”.
